From publication PMC9863002, “Amino Derivatives of Diaryl Pyrimidines and Azolopyrimidines as Protective Agents against LPS-Induced Acute Lung Injury” (Molecules, 2023)

What was measured:
Format in all cases: cell-based, C57bl/6j mice
[1] = test system: NO synthesis in LPS-stimulated primary murine peritoneal macrophages; test: Inhibition of NO synthesis in LPS-stimulated macrophages (Griess); conditions: Mus musculus, Peritoneal macrophage; LPS-stimulated (100 ng/mL E. coli LPS) peritoneal macrophages, supernatants after 22 h; n.a. = not active
Experimental: (§1) Peritoneal macrophages (PM) were isolated from the peritoneal exudate of 30 male C57bl/6j mice. To accumulate PM, 1 mL of 3% peptone solution was injected intraperitoneally. After 3 days, the mice were euthanized by cervical dislocation. Cells of peritoneal exudate were obtained by aseptic washing of the abdominal cavity with 5 mL of sterile Hanks’s solution (+4–6 °C) without calcium and magnesium ions. The total number and viability of cells were assessed in a Goryaev counting chamber (Russia) with a 0.4% trypan blue staining (Sigma-Aldrich, St. Louis, MO, USA). The cell concentration was adjusted to 1.0 × 10^6 cells/mL in DMEM (Gibco, Waltham, MA, USA) supplemented with 2 mM L-glutamine (Gibco), 10% heat-inactivated fetal bovine serum (BioClot, Bavaria, Germany), 100 U/mL penicillin, and […] streptomycin (Gibco) and plated 200 µL/well in 96-well transparent plates (SPL Life Sciences Co., Ltd., Pocheon-si, Republic of Korea). After 2 h at 37 °C in a humidified atmosphere with 5% CO2, the wells were washed to remove non-adherent cells. After 24 h of incubation, 20 µL of the supernatants were substituted with 20 µL of solutions of test compounds, followed by E. coli O127:B8 LPS (100 ng/mL final concentration) after 30 min. The experiments were run in 3 independent replicates.
The accumulation of the nitrite anion (a stable end product of NO decomposition) in supernatants was determined using a standard Griess reagent. Briefly, 50 µL of supernatants were collected 22 h after incubation of PM, and the test and control compounds were mixed with 50 µL of 1% sulfonamide in 2.5% H3PO4 and 50 µL of 0.1% N-(1-naphthyl) ethylenediamine in 2.5% H3PO4. After incubation at 23 °C for 10 min in an orbital shaker, the optical density was determined at a wavelength of 550 nm with a microplate reader Infinite M200 PRO (Tecan, Grödig, Austria).

[2] = test system: IL-6 release in LPS-stimulated primary murine peritoneal macrophages; test: Inhibition of IL-6 release in LPS-stimulated macrophages (ELISA); conditions: Mus musculus, Peritoneal macrophage; LPS-stimulated (100 ng/mL E. coli LPS) peritoneal macrophages; n.a. = not active
Experimental: as §1
The cell supernatant was collected and centrifuged at 1000× g for 20 min in a 2–16 PK centrifuge (Sigma, Osterode am Harz, Germany). The concentrations of IL-6 and TNF-alpha were determined by ELISA using commercial kits (Cloud-clone, Houston, TX, USA) with a microplate reader Infinite M200 PRO (Tecan, Grödig, Austria).

MTT cytotoxicity study = conditions: male, C57bl/6j, mouse; peritoneal macrophages, 24 h incubation
Experimental: as §1
(§2) The activity of lactate dehydrogenase (LDH) in a cell culture medium served as a marker of membrane permeability and cell death. Aliquots of supernatants were taken after 24 h of inoculation with test compounds, mixed with 250 µL of […] NADH solution in 54 mM phosphate-buffered saline (pH 7.5). Then, 25 µL of a 6.48 mM pyruvate solution was added to the mixture. The optical density was followed at a wavelength of 340 nm for 20 min. The MTT test was performed 24 h after incubations of cells with tested compounds. Briefly, 20 µL of MTT solution was added to each well and incubated at 37 °C in a humidified atmosphere containing 5% CO2 for 4 h. The culture medium was removed, the cells were lysed, and formazan crystals were dissolved in 150 µL DMSO. The plates were shaken at room temperature for 10 min, and the optical density was measured in a microplate reader Infinite M200 PRO (Tecan, Grödig, Austria) at a wavelength of 565 nm.

peritoneal macrophages = test: MTT cytotoxicity study
Experimental: as §1, §2

[3] = test system: phagocytic activity of C57bl/6j peritoneal macrophages; test: Phagocytosis assay (yeast); conditions: 72 h of incubation
Experimental: Peritoneal macrophages of C57bl/6j mice were cultured in a 24-well plate at a volume of 500 µL/well (1 × 10^5 cells/mL) for 24 h. Test compounds or DMSO were added to wells in triplicate followed by 50 µL of 1% yeast suspension, and the plates were incubated for 40 min. After 24 or 72 h, the medium was removed. The cells were fixed with May–Grunwald methanol dye and stained with Azur–Eosin in Romanovsky’s modification for 45 min at room temperature, washed, air-dried, and analyzed using a microscope Mikmed-6 (Russia), equipped with a digital camera. The study was performed in three technical replicates and two series; 100 macrophages were processed in each sample to count the captured yeast cells. Macrophage spreading was assessed as a number of pseudopodia.

Q: For `Nc1ccc(-c2cc(-c3ccc(N)cc3)n3ncnc3n2)cc1` [Compound 7c], which IC50 [1] is on record?
A: The IC50 was 15.2 µM.

Q: What about the IC50 [2] of the same compound?
A: The IC50 was 2.2 µM.

Q: What about the CC50 at 24 h (MTT cytotoxicity study) of the same compound?
A: Its CC50 at 24 h is 47.1 µM.

Q: And the “cytotoxicity in the MTT test, in words” value (peritoneal macrophages)?
A: Its value is “pronounced cytotoxicity”.

Q: And the “macrophage phagocytic activity (number of phagocytes), in words” value [3]?
A: The value was “preserve macrophage phagocytic activity”.

Q: What about the “phagocytic capacity (number of yeast cells per macrophage), in words” value [3] of the same compound?
A: The value was “significantly suppressed macrophage phagocytic capacity”.

Q: And the “decrease of the mean number of phagocytosed particles” value ([3]; vs DMSO)?
A: Its value is 63%.
